We go through three compounds from article PMC7044140, “Comparative studies on similarities and differences of cyclodipeptide oxidases for installation of C–C double bonds at the diketopiperazine ring” (Applied Microbiology and Biotechnology, 2020).

One experiment concerns the target T1, CDO-Np (CDO-NpA/CDO-NpB) (Nocardiopsis sp. L17-MgMaSL7, UniProt A0A317LX08+A0A317LXS7).
T1 construct: gene BDW27_11054; desalted crude extract
T1 sequence (A0A317LXS7 1-185): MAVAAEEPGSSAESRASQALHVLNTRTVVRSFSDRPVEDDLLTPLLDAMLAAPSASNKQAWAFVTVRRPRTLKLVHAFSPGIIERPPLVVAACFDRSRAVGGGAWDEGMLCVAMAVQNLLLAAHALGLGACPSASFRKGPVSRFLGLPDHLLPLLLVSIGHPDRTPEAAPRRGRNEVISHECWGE
T1 sequence (A0A317LX08 1-105): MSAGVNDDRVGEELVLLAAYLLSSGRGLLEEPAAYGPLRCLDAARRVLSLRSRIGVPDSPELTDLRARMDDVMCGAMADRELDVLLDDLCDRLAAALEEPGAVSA
As to the kind of experiment: LC-MS/HPLC product formation with E. coli crude extract. The note with it: 1 mM substrate, 1 mM phenazine methosulfate, pH 7.5, 40 °C; dehydrogenation. The class given is biochemical.

The target of another experiment is T2, AlbA/B (Streptomyces noursei, UniProt Q8GED8+Q8GED9).
T2 construct: both subunits co-expressed from overlapping genes in pQE-60 (pKB90) in E. coli SG 13009; desalted crude extract; CDOs described as multimers above 2000 kDa, estimated B to A ratio 1:10
The experiment is described as above. The note with it: 1 mM substrate, 1 mM phenazine methosulfate, pH 7.5, 40 °C; dehydrogenation. It is filed as biochemical.

Each structure is given as a SMILES string.

T2 sequence (Q8GED9 whole entry): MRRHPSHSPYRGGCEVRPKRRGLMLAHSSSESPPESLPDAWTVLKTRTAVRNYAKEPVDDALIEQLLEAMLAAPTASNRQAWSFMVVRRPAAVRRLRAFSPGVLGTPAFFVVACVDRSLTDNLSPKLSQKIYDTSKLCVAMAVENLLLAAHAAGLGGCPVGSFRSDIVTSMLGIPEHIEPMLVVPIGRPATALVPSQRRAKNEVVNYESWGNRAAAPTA
T2 sequence (Q8GED8 whole entry): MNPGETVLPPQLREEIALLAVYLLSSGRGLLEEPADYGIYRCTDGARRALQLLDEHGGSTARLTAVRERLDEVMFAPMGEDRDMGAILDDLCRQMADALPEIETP

Turning to `CC(C)C[C@@H]1NC(=O)[C@H](Cc2ccccc2)NC1=O` [1a, cyclo-L-Phe-L-Leu], the “LC-MS/HPLC product formation with E. coli crude extract” value (“LC-MS/HPLC product formation” for short) at CDO-Np (CDO-NpA/CDO-NpB) is “CDO-Np showed very high activity toward 1a and 2a”.

For the compound `O=C1N[C@@H](Cc2c[nH]c3ccccc23)C(=O)N[C@H]1Cc1ccc(O)cc1` [3a, cyclo-L-Trp-L-Tyr], on AlbA/B, the “LC-MS/HPLC product formation” value is “Only one didehydrogenated product 3b or 5b was detected in the reaction mixtures of AlbA/B”.

As for `O=C1N[C@@H](Cc2ccc(O)cc2)C(=O)N[C@H]1Cc1ccccc1` [2a, cyclo-L-Phe-L-Tyr], the “LC-MS/HPLC product formation” value at AlbA/B is “The behavior of AlbA/B with 2a was similar to CDO-Np with 3a and 5a”; at CDO-Np (CDO-NpA/CDO-NpB), “In vitro incubation of 2a with CDO-Np led to an almost complete conversion to 2d”.
